Measurements taken from ChEMBL document CHEMBL5291721, “A preclinical secondary pharmacology resource illuminates target-adverse drug reaction associations of marketed drugs” (Nat Commun, 2023).

How the values were obtained:
[1] = target: T1, Alpha-1A adrenergic receptor (Homo sapiens, UniProt P35348); type: functional, cell-based
T1 sequence (P35348 whole entry): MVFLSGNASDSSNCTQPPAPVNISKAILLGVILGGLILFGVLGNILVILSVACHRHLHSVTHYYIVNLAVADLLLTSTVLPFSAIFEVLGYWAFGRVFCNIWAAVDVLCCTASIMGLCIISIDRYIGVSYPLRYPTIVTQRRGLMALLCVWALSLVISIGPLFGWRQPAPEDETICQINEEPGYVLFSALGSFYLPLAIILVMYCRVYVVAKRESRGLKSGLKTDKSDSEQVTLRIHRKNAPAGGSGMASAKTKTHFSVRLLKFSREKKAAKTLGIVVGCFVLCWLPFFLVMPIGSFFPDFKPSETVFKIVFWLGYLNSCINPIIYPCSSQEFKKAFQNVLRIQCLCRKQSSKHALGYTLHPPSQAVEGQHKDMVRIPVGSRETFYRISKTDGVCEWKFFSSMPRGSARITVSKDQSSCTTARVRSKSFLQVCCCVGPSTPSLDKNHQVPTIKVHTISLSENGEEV

[2] = target: T1, Alpha-1A adrenergic receptor
[3] = target: Beta-2 adrenergic receptor (Homo sapiens, UniProt P07550)
Sequence of Beta-2 adrenergic receptor (P07550 whole entry): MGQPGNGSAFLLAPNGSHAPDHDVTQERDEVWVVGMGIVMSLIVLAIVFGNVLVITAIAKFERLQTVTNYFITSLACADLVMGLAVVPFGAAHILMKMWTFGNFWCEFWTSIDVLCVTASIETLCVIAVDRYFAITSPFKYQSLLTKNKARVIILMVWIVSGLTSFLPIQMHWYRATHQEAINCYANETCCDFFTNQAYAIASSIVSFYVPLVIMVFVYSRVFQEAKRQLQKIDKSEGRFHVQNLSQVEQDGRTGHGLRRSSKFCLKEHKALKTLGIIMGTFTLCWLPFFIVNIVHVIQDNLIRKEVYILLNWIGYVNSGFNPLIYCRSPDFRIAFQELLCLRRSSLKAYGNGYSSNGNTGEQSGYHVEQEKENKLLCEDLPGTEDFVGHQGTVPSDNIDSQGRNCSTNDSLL

[4] = target: Muscarinic acetylcholine receptor M3 (Homo sapiens, UniProt P20309)
Sequence of Muscarinic acetylcholine receptor M3 (P20309 whole entry): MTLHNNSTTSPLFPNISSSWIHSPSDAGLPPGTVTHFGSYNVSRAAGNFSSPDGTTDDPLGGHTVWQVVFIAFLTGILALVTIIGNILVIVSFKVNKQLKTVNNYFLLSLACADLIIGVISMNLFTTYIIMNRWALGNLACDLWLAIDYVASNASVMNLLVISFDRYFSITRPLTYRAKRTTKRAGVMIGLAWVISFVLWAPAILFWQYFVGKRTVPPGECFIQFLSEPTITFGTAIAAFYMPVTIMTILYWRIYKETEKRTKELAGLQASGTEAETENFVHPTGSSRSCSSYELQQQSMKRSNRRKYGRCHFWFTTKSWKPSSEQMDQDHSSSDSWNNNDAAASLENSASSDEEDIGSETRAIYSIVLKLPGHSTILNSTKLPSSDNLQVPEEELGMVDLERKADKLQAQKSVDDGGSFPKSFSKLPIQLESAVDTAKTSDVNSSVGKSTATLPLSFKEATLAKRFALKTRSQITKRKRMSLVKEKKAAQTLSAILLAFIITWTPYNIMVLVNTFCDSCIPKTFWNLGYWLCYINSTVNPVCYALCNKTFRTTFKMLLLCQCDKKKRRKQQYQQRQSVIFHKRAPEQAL

Endothelin-1 receptor = target: T2, Endothelin-1 receptor (Homo sapiens, UniProt P25101)
T2 sequence (P25101 whole entry): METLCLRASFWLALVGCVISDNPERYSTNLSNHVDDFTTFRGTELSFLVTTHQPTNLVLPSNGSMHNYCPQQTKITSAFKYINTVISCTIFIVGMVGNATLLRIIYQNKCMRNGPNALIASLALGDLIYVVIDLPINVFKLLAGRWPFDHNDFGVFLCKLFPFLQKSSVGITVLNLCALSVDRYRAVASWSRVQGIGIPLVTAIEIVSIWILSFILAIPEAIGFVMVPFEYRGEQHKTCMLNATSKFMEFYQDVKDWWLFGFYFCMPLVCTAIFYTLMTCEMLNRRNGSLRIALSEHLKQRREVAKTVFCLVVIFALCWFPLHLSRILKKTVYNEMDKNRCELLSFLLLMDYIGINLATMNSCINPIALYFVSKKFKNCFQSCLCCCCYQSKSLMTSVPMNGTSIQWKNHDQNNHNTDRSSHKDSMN

Estrogen receptor = target: T3, Estrogen receptor (Homo sapiens, UniProt P03372)
T3 sequence (P03372 whole entry): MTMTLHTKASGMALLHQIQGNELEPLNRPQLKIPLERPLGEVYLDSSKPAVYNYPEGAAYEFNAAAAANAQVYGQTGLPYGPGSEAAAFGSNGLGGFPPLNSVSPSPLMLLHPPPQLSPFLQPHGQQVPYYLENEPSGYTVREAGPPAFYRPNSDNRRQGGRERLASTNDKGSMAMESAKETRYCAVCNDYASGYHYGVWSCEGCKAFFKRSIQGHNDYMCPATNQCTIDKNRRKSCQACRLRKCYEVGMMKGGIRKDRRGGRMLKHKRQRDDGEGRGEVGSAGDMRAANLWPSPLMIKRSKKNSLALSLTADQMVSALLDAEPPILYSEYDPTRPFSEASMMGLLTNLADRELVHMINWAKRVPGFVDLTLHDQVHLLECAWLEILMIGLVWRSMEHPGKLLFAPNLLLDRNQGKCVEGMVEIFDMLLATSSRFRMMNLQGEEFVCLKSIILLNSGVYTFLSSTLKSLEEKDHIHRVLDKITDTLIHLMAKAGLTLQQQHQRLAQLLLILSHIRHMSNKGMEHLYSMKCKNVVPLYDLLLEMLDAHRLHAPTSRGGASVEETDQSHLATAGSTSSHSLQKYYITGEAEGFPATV

[5] = target: T4, Gamma-aminobutyric acid receptor subunit alpha-1 (Rattus norvegicus, UniProt P62813)
T4 sequence (P62813 whole entry): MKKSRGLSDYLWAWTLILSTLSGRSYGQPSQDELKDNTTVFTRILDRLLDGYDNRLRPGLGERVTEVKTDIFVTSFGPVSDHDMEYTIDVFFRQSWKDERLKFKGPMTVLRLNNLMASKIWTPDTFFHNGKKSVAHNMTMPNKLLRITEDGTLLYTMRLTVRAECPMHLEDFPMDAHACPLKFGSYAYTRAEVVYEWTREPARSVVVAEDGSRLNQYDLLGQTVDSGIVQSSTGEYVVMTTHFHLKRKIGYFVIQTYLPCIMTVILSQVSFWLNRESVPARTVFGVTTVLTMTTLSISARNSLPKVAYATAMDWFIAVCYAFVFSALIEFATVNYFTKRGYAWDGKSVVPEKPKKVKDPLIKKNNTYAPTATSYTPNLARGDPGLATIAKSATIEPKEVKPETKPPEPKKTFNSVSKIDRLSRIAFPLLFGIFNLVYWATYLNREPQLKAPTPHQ

[6] = target: T4, Gamma-aminobutyric acid receptor subunit alpha-1; type: functional
[7] = target: Growth hormone secretagogue receptor type 1 (Homo sapiens, UniProt Q92847)
Sequence of Growth hormone secretagogue receptor type 1 (Q92847 whole entry): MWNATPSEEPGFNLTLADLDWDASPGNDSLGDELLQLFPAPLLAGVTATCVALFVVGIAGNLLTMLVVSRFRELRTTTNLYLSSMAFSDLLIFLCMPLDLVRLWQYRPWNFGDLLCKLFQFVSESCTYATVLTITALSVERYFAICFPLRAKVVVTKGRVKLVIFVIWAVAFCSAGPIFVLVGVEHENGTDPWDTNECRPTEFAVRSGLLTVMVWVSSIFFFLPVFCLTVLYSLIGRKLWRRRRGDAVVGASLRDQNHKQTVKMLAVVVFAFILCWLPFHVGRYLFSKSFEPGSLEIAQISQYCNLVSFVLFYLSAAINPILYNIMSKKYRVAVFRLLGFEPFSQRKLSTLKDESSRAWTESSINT

[8] = target: Glutamate receptor ionotropic, NMDA 1 (Rattus norvegicus, UniProt P35439)
[9] = target: T5, 5-hydroxytryptamine receptor 1A (Homo sapiens, UniProt P08908); type: functional, cell-based
T5 sequence (P08908 whole entry): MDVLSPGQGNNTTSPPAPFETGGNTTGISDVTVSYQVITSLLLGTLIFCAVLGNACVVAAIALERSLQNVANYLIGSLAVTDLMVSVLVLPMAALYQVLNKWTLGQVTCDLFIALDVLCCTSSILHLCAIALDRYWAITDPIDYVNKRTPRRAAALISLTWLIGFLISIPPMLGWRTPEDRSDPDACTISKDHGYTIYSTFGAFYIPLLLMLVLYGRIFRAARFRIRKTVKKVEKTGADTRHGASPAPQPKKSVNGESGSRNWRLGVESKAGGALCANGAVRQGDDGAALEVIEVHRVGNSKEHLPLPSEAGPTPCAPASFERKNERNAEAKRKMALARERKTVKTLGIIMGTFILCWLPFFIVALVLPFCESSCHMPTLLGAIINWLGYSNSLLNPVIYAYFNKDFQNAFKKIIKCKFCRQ

Melanocortin receptor 4 = Melanocortin receptor 4 (Homo sapiens, UniProt P32245)
Sequence of Melanocortin receptor 4 (P32245 whole entry): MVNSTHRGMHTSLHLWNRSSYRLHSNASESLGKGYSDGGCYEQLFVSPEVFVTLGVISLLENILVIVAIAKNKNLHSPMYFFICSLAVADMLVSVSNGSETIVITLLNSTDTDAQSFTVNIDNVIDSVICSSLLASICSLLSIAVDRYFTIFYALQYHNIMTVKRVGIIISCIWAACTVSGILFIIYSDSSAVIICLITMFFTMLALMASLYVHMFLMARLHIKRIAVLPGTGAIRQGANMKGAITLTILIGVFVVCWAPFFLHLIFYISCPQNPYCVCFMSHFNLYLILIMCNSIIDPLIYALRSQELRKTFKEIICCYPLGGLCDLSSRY

Motilin receptor = Motilin receptor (Homo sapiens, UniProt O43193)
Sequence of Motilin receptor (O43193 whole entry): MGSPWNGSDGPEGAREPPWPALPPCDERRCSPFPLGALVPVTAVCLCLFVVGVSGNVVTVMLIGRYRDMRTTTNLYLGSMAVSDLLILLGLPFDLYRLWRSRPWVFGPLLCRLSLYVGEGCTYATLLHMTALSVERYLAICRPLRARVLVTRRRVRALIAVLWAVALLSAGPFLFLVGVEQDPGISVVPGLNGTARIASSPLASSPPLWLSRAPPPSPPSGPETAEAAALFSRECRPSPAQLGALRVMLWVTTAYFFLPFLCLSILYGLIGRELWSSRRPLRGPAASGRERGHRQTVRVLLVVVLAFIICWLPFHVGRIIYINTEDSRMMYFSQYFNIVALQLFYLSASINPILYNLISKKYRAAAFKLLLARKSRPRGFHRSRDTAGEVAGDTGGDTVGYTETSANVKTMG

[10] = target: cGMP-inhibited 3',5'-cyclic phosphodiesterase 3A (Homo sapiens, UniProt Q14432); type: functional
Sequence of cGMP-inhibited 3',5'-cyclic phosphodiesterase 3A (Q14432 whole entry): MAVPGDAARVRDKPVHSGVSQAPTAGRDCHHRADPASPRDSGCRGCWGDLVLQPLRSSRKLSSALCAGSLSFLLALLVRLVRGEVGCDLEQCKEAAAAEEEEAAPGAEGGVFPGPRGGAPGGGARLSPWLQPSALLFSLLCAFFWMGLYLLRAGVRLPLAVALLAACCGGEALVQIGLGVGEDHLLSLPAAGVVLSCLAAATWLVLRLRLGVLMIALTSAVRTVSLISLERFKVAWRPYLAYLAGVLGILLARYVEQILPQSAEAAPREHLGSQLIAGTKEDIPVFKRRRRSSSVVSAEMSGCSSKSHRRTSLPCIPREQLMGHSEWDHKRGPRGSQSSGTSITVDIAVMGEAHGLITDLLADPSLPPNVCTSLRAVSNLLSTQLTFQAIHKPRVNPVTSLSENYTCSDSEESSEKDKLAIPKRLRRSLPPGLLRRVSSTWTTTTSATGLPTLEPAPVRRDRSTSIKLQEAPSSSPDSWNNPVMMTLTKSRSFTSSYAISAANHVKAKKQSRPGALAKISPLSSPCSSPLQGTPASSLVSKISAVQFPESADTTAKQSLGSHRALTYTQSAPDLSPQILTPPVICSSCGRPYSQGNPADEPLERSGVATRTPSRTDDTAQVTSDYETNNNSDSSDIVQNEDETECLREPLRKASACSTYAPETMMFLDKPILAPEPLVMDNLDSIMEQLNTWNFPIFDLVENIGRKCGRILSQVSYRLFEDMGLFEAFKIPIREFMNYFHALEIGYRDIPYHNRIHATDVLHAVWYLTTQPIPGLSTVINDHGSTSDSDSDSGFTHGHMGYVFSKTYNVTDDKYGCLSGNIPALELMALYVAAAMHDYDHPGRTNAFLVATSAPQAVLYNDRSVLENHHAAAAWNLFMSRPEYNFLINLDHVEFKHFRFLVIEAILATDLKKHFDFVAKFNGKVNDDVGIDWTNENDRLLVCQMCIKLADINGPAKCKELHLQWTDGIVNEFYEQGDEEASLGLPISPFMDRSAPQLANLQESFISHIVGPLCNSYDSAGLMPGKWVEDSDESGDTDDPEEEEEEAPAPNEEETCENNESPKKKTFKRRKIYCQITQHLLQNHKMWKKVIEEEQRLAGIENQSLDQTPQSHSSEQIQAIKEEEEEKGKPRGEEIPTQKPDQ

D(3) dopamine receptor = D(3) dopamine receptor (Homo sapiens, UniProt P35462)
Sequence of D(3) dopamine receptor (P35462 whole entry): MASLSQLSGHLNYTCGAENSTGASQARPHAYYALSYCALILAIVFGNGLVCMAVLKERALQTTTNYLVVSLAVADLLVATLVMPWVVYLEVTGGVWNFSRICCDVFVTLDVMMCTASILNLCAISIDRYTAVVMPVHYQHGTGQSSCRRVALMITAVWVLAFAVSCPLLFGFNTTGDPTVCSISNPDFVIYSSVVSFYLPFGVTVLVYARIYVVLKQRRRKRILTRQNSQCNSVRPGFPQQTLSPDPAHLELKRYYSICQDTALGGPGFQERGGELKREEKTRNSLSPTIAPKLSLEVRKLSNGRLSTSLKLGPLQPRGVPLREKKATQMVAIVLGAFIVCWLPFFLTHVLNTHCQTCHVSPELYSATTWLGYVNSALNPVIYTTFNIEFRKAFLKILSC

Histamine H3 receptor = Histamine H3 receptor (Homo sapiens, UniProt Q9Y5N1)
Sequence of Histamine H3 receptor (Q9Y5N1 whole entry): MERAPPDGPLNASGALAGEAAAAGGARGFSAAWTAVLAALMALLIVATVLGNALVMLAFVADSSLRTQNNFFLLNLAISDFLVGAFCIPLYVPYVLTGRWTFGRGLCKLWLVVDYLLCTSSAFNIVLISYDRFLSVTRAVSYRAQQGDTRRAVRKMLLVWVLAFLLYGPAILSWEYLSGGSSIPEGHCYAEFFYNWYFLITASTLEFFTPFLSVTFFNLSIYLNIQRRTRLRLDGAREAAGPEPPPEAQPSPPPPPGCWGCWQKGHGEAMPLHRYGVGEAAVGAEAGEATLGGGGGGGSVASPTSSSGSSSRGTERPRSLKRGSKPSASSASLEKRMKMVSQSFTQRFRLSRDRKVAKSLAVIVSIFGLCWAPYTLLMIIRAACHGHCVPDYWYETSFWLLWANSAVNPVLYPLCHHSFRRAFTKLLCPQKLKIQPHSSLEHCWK
Further: assay procedure not described here.

Structure (SMILES)	AC50 [1]	AC50 [2]	AC50 [3]	AC50 [4]	AC50 (Endothelin-1 receptor)	AC50 (Estrogen receptor)	AC50 [5]	AC50 [6]	AC50 [7]	AC50 [8]	AC50 [9]	AC50 (Melanocortin receptor 4)	AC50 (Motilin receptor)	AC50 [10]	AC50 (D(3) dopamine receptor)	AC50 (Histamine H3 receptor)
CC(C)(N)Cc1ccccc1 [PHENTERMINE]	> 30 µM	> 10 µM	> 10 µM	> 30 µM	> 30 µM	> 30 µM	> 10 µM	> 10 µM	> 30 µM	> 10 µM	> 10 µM	> 30 µM	> 10 µM	> 30 µM	> 30 µM	> 10 µM
CCN(CC)CCCN(c1ccccc1)C1Cc2ccccc2C1 [APRINDINE]	> 30 µM	1.3 µM	> 10 µM	> 30 µM	> 30 µM	> 30 µM	> 30 µM	> 30 µM	15 µM	> 30 µM	> 10 µM	> 10 µM	> 30 µM	> 30 µM	3.15 µM	18 µM
CN1C(=O)CN=C(c2ccccc2F)c2cc([N+](=O)[O-])ccc21 [FLUNITRAZEPAM]	> 30 µM	> 10 µM	> 10 µM	> 30 µM	> 30 µM	> 30 µM	> 10 µM	0.0055 µM	29.1 µM	> 10 µM	> 10 µM	> 30 µM	> 10 µM	> 30 µM	> 30 µM	> 10 µM
CC(C(=O)O)c1ccc(C(=O)c2ccccc2)s1 (centres undefined) [TIAPROFENIC ACID]	> 30 µM	10 µM	> 10 µM	> 30 µM	–	> 10 µM	> 10 µM	> 30 µM	> 10 µM	> 10 µM	> 10 µM	> 10 µM	> 10 µM	> 30 µM	8.6 µM	> 10 µM
CN1C2CCCC1CC(NC(=O)c1nn(C)c3ccccc13)C2 (centres undefined) [GRANISETRON]	> 30 µM	> 10 µM	> 10 µM	–	> 30 µM	> 30 µM	> 10 µM	> 10 µM	> 30 µM	> 10 µM	> 10 µM	> 30 µM	> 10 µM	> 10 µM	> 10 µM	> 10 µM
Oc1cc(O)c2c(c1)O[C@H](c1ccc(O)c(O)c1)[C@@H](O)C2 [CIANIDANOL]	> 30 µM	> 10 µM	> 10 µM	> 30 µM	> 30 µM	> 30 µM	> 10 µM	> 10 µM	> 30 µM	> 10 µM	> 10 µM	> 30 µM	> 10 µM	> 30 µM	> 30 µM	> 10 µM
C=C(c1ccccc1OCc1cccc(Cl)c1)n1ccnc1 [CROCONAZOLE]	> 30 µM	9.4 µM	> 30 µM	> 30 µM	–	> 30 µM	> 10 µM	> 10 µM	> 30 µM	> 10 µM	24 µM	> 30 µM	> 10 µM	> 30 µM	> 30 µM	> 10 µM
